Tests used:
[1] = target: CDK6/cyclin D3 (Homo sapiens) (UniProt P30281+Q00534); assay: Inhibition of CDK6/cyclinD3(h) at 10.0 µM in the Eurofins Kinase panel; format: protein-complex assay; details: Compound concentration 10.0 uM
[2] = target: Dual specificity protein kinase CLK3 (Homo sapiens) (UniProt P49761); assay: Inhibition of CLK3(h) at 10.0 µM in the Eurofins Kinase panel; details: Compound concentration 10.0 uM
[3] = target: RAF proto-oncogene serine/threonine-protein kinase (Homo sapiens) (UniProt P04049); assay: Inhibition of c-RAF(h) at 10.0 µM in the Eurofins Kinase panel; details: Compound concentration 10.0 uM
[4] = target: Ephrin type-A receptor 8 (Homo sapiens) (UniProt P29322); assay: Inhibition of EphA8(h) at 10.0 µM in the Eurofins Kinase panel; details: Compound concentration 10.0 uM
[5] = target: Vascular endothelial growth factor receptor 3 (Homo sapiens) (UniProt P35916); assay: Inhibition of Flt4(h) at 10.0 µM in the Eurofins Kinase panel; details: Compound concentration 10.0 uM
[6] = target: Tyrosine-protein kinase Fyn (Homo sapiens) (UniProt P06241); assay: Inhibition of Fyn(h) at 10.0 µM in the Eurofins Kinase panel; details: Compound concentration 10.0 uM
[7] = target: Beta-adrenergic receptor kinase 1 (Homo sapiens) (UniProt P25098); assay: Inhibition of GRK2(h) at 10.0 µM in the Eurofins Kinase panel; details: Compound concentration 10.0 uM
[8] = target: Rhodopsin kinase GRK7 (Homo sapiens) (UniProt Q8WTQ7); assay: Inhibition of GRK7(h) at 10.0 µM in the Eurofins Kinase panel; details: Compound concentration 10.0 uM
[9] = target: Inhibitor of nuclear factor kappa-B kinase subunit epsilon (Homo sapiens) (UniProt Q14164); assay: Inhibition of IKKepsilon(h) at 10.0 µM in the Eurofins Kinase panel; details: Compound concentration 10.0 uM
[10] = target: Interleukin-1 receptor-associated kinase 1 (Homo sapiens) (UniProt P51617); assay: Inhibition of IRAK1(h) at 10.0 µM in the Eurofins Kinase panel; details: Compound concentration 10.0 uM
[11] = target: LIM domain kinase 1 (Homo sapiens) (UniProt P53667); assay: Inhibition of LIMK1(h) at 10.0 µM in the Eurofins Kinase panel; details: Compound concentration 10.0 uM
LIM domain kinase 1 (Homo sapiens), sequence (P53667 whole entry, looked up, the tested form may be a part): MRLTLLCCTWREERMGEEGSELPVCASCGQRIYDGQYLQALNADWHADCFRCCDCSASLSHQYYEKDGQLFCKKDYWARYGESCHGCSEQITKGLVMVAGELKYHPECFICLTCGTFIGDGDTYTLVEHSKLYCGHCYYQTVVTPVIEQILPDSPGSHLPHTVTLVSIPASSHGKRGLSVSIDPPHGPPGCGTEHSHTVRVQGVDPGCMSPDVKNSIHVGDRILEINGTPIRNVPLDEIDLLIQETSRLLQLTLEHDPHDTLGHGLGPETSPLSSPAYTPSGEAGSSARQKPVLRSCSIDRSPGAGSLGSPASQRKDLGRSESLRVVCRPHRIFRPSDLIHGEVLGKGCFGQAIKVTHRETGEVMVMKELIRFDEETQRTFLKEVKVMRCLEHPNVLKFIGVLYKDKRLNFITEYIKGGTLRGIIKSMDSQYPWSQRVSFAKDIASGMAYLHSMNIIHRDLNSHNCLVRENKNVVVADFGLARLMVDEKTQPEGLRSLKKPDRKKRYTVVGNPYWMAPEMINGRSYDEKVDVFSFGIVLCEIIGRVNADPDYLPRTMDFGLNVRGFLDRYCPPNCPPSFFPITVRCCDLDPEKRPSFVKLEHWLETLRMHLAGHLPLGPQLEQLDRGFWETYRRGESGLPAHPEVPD

[12] = target: Mitogen-activated protein kinase kinase kinase 2 (Homo sapiens) (UniProt Q9Y2U5); assay: Inhibition of MEKK2(h) at 10.0 µM in the Eurofins Kinase panel; details: Compound concentration 10.0 uM
[13] = target: Serine/threonine-protein kinase 3 (Homo sapiens) (UniProt Q13188); assay: Inhibition of MST2(h) at 10.0 µM in the Eurofins Kinase panel; details: Compound concentration 10.0 uM
[14] = target: Serine/threonine-protein kinase PAK 4 (Homo sapiens) (UniProt O96013); assay: Inhibition of PAK4(h) at 10.0 µM in the Eurofins Kinase panel; details: Compound concentration 10.0 uM
Serine/threonine-protein kinase PAK 4 (Homo sapiens), sequence (O96013 whole entry, looked up): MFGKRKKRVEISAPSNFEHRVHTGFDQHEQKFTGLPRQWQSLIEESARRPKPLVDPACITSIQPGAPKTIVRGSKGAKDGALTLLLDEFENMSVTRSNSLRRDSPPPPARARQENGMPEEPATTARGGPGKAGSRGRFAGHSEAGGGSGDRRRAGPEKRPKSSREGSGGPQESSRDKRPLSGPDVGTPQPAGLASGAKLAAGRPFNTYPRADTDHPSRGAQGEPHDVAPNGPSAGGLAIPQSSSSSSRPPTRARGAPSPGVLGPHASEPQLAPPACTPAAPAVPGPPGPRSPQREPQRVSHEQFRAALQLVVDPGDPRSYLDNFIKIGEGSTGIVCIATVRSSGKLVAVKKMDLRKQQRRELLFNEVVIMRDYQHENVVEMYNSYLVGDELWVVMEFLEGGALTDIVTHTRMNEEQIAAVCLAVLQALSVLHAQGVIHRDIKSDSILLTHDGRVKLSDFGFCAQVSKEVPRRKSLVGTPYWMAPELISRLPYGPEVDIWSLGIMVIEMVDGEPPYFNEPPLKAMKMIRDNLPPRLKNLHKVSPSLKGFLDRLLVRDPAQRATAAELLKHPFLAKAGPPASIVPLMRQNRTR

[15] = target: Protein kinase C eta type (Homo sapiens) (UniProt P24723); assay: Inhibition of PKCeta(h) at 10.0 µM in the Eurofins Kinase panel; details: Compound concentration 10.0 uM
[16] = target: Protein kinase C zeta type (Homo sapiens) (UniProt Q05513); assay: Inhibition of PKCzeta(h) at 10.0 µM in the Eurofins Kinase panel; details: Compound concentration 10.0 uM
Protein kinase C zeta type (Homo sapiens), sequence (Q05513 whole entry): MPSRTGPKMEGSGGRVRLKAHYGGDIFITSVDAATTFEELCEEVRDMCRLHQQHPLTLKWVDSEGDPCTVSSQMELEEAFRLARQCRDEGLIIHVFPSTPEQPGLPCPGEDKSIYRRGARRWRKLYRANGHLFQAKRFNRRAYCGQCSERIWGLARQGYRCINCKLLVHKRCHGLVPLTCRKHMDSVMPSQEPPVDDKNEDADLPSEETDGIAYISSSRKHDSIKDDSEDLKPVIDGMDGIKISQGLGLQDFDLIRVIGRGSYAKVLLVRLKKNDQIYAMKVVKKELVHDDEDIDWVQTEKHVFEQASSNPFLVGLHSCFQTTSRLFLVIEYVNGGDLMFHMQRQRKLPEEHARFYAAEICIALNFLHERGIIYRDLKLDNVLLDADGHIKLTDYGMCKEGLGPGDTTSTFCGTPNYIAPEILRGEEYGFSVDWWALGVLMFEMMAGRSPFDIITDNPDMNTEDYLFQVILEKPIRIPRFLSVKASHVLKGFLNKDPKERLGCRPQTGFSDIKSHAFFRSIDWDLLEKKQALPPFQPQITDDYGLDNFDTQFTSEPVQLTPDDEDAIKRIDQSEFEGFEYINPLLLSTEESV

[17] = target: T1, cGMP-dependent protein kinase 1 (Homo sapiens) (UniProt Q13976); assay: Inhibition of PKG1alpha(h) at 10.0 µM in the Eurofins Kinase panel; details: Compound concentration 10.0 uM
T1 sequence (whole entry): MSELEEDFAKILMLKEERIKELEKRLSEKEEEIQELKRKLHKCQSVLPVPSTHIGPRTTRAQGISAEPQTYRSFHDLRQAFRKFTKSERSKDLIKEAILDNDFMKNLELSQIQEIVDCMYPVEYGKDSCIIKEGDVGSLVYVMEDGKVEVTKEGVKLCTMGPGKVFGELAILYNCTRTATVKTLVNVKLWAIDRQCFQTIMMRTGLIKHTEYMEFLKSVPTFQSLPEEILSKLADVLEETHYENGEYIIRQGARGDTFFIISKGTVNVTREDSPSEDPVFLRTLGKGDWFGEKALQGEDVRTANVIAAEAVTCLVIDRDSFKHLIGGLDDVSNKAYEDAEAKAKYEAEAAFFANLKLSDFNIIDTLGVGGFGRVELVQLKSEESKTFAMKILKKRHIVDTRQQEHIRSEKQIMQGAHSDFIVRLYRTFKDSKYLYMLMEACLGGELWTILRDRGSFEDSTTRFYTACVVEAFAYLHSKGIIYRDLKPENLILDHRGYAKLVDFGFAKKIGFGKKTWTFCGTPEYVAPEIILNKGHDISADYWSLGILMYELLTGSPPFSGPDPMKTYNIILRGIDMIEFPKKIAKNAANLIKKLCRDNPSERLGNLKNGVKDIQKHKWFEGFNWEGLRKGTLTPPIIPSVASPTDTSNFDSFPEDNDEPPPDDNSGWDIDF

[18] = target: Interferon-induced, double-stranded RNA-activated protein kinase (Homo sapiens) (UniProt P19525); assay: Inhibition of PKR(h) at 10.0 µM in the Eurofins Kinase panel; details: Compound concentration 10.0 uM
[19] = target: Proto-oncogene tyrosine-protein kinase ROS (Homo sapiens) (UniProt P08922); assay: Inhibition of Ros(h) at 10.0 µM in the Eurofins Kinase panel; details: Compound concentration 10.0 uM
Proto-oncogene tyrosine-protein kinase ROS (Homo sapiens), sequence (P08922 whole entry): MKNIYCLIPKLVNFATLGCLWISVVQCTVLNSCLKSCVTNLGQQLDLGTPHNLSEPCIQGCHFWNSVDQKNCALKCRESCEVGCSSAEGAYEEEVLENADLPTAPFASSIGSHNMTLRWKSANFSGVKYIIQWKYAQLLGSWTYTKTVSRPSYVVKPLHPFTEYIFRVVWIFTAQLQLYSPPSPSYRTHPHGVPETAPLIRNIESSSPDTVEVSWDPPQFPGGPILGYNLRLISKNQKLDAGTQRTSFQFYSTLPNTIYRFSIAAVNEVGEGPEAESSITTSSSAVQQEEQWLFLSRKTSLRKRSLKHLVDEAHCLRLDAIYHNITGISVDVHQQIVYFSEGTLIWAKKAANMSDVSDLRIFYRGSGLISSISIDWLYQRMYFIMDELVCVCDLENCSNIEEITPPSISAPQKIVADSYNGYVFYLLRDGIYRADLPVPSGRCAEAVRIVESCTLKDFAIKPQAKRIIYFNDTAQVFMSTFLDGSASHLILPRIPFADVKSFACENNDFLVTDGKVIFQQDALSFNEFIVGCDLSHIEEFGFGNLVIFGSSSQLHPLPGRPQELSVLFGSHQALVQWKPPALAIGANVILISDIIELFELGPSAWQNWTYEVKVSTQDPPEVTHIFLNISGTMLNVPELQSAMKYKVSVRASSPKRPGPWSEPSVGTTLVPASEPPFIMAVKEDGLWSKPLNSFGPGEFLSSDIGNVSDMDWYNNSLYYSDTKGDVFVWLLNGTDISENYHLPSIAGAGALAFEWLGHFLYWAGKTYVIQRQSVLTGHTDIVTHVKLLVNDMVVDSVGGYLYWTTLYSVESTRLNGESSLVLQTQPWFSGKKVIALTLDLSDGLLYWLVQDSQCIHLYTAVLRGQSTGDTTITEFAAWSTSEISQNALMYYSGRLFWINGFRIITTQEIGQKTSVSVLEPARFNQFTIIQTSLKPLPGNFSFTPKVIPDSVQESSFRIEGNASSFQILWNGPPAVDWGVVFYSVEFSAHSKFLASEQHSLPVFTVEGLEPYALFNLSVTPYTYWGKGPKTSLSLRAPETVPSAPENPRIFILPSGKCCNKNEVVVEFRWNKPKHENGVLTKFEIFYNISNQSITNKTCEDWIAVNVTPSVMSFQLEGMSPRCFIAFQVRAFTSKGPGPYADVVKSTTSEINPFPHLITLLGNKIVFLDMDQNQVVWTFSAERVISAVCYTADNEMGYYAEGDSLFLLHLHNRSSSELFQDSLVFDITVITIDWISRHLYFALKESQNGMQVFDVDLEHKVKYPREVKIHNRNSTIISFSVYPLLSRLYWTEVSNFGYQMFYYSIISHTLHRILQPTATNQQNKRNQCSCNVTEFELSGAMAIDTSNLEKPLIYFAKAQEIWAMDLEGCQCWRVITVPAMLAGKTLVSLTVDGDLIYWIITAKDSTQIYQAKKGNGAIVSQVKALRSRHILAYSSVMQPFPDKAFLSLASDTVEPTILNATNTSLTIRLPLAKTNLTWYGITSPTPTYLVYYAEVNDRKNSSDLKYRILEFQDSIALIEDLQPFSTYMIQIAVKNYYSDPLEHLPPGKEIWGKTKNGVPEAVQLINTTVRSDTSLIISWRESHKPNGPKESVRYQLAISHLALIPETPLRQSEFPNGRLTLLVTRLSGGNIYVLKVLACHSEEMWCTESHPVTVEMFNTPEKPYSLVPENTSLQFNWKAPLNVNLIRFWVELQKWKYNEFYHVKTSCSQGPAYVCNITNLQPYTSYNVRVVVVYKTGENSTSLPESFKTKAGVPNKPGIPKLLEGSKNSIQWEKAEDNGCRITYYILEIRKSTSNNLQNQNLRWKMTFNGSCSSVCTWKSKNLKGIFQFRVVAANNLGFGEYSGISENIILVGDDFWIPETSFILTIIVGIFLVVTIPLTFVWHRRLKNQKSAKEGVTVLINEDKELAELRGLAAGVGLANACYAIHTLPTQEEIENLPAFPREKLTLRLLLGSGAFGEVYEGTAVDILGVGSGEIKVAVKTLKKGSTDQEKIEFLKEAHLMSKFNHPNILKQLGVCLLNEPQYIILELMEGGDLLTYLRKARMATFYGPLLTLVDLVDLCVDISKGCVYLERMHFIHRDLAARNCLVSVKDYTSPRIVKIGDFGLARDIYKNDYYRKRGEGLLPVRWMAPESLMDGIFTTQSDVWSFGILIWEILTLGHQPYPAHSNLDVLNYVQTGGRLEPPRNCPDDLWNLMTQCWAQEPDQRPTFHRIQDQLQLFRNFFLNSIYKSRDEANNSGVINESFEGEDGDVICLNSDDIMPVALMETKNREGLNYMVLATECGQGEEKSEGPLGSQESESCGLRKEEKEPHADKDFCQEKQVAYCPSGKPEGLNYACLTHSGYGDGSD

[20] = target: Testis-specific serine/threonine-protein kinase 1 (Homo sapiens) (UniProt Q9BXA7); assay: Inhibition of TSSK1(h) at 10.0 µM in the Eurofins Kinase panel; details: Compound concentration 10.0 uM
[21] = target: Non-receptor tyrosine-protein kinase TYK2 (Homo sapiens) (UniProt P29597); assay: Inhibition of TYK2(h) at 10.0 µM in the Eurofins Kinase panel; details: Compound concentration 10.0 uM
[22] = target: Citron Rho-interacting kinase (Homo sapiens) (UniProt O14578); assay: Inhibition of CRIK(h) at 10.0 µM in the Eurofins Kinase panel; details: Compound concentration 10.0 uM
[23] = target: Beta-1 adrenergic receptor (Homo sapiens) (UniProt P08588); details: Compound concentration 10.0 uM
[24] = target: Endothelin-1 receptor (Homo sapiens) (UniProt P25101); details: Compound concentration 10.0 uM
Vasopressin V1a receptor = Vasopressin V1a receptor (Homo sapiens, UniProt P37288)
Vasopressin V1a receptor, sequence (P37288 whole entry, looked up): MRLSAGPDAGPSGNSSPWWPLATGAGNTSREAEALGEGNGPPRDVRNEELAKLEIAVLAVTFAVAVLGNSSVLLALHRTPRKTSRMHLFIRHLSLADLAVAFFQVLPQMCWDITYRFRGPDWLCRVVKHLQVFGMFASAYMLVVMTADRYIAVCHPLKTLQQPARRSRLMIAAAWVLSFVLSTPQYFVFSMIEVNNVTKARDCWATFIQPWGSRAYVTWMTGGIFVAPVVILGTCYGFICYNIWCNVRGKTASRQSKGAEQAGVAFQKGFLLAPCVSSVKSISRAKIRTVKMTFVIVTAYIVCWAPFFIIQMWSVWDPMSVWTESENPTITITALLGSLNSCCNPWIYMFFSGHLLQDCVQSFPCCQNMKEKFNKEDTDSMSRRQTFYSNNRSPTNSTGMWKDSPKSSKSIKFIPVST

[25] = target: Kappa-type opioid receptor (Homo sapiens, UniProt P41145); assay: GPCRScan assay: inhibition of KOR; design: radioligand conc. used [nm] 0.6 – 1.2, parental cells stable HEK
Kappa-type opioid receptor, sequence (P41145 whole entry): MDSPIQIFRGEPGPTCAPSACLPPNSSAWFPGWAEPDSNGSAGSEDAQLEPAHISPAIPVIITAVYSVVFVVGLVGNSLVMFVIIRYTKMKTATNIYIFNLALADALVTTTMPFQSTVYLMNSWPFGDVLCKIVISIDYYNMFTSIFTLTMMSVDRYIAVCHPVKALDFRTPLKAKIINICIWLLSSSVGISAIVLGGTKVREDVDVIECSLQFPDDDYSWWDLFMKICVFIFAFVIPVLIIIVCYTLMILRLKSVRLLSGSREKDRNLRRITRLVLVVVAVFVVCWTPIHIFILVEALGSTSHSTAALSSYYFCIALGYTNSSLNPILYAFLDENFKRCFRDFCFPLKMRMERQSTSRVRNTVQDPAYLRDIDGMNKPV

[26] = target: Neutrophil elastase (Homo sapiens) (UniProt P08246); assay: Inhibition of Peptidase, ELA2 (Neutrophil Elastase 2) at 10 µM in the Eurofins-Panlabs enzyme assay (Eurofins_assay_166010); details: Compound concentration 10.0 uM
[27] = target: Receptor tyrosine-protein kinase erbB-2 (Homo sapiens) (UniProt P04626); assay: Inhibition of Protein Tyrosine Kinase, ERBB2 (HER2) at 10 µM in the Eurofins-Panlabs enzyme assay (Eurofins_assay_174020); design: substrate with concentration; details: Compound concentration 10.0 uM
[28] = target: Serine/threonine-protein kinase Nek4 (Homo sapiens) (UniProt P51957); assay: Inhibition of NEK4(h) at 10.0 µM in the Eurofins Kinase panel; details: Compound concentration 10.0 uM
[29] = target: Cannabinoid receptor 1 (Homo sapiens) (UniProt P21554); details: Compound concentration 10.0 uM
[30] = target: Acetylcholinesterase (Homo sapiens) (UniProt P22303); details: Compound concentration 10.0 uM

Row | SMILES | inhibition [1] [%] | inhibition [2] [%] | inhibition [3] [%] | inhibition [4] [%] | inhibition [5] [%] | inhibition [6] [%] | inhibition [7] [%] | inhibition [8] [%] | inhibition [9] [%] | inhibition [10] [%] | inhibition [11] [%] | inhibition [12] [%] | inhibition [13] [%] | inhibition [14] [%] | inhibition [15] [%] | inhibition [16] [%] | inhibition [17] [%] | inhibition [18] [%] | inhibition [19] [%] | inhibition [20] [%] | other results
1 | O=c1n(Cc2cncn2-c2cccc(Cl)c2)nc(-c2ccc(Cl)cc2)n1C[C@H](O)C(F)(F)F | 0.27 | 1.4 | -1.49 | 3.67 | 11.3 | 5.53 | -6.21 | -3.6 | 0.02 | 1.24 | 0.42 | 9.53 | -1.52 | -2.41 | 10.8 | 8.34 | -0.21 | -3.03 | 3.23 | 7.23 | inhibition [21]: 5.83%; inhibition [22]: -2.08%; inhibition [23]: 5%; inhibition [24]: -3%; inhibition (Vasopressin V1a receptor; Compound concentration 10.0 uM): 28%
2 | C[C@H](O)c1nc(Cn2nc(-c3ccc(Cl)cc3)n(C[C@H](O)C(F)(F)F)c2=O)nn1-c1cccc(Cl)c1 [PECAVAPTAN] | -0.62 | -0.38 | -1.46 | 4.55 | 4.21 | -1.76 | 5.86 | 0.06 | 3.03 | -0.22 | 0.57 | 7.54 | -2.77 | -1.84 | 4.39 | 18.7 | -5.35 | 1.32 | -1.01 | -5.64 | Ki ([25]; read-out: Ki): 2170 nM; Ki ([25]; read-out: pKi (converted)): 2140 nM; inhibition [26]: 1%; inhibition [27]: 15%; inhibition [28]: 13.1%; inhibition [21]: 8.75%; inhibition [23]: 5%; inhibition [29]: 34%; inhibition [24]: 18%; inhibition [30]: 2%; inhibition (Vasopressin V1a receptor; Compound concentration 0.01 uM): 65%
